± gives the expanded uncertainty stated by the source.
Assays:
[1] = xn = mol fraction of the nth substance listed; details: 298.15 K, 101.33 kPa, Liquid
[2] = relative permittivity at various frequencies (dimensionless); xn = mol fraction of the nth substance listed; details: 298.15 K, 101.33 kPa, Liquid, Frequency=0.03 MHz, Parallel plate capacitor
[3] = 298.15 K; 101.33 kPa; Liquid

CCCCCCCCCCCC [dodecane] + CO
Details	mass density [kg/m3]	relative permittivity
[1], x2 = 0.00135	745.406 ± 0.26	–
[1], x2 = 0.00185	745.4 ± 0.26	–
[1], x2 = 0.00406	745.379 ± 0.26	–
[1], x2 = 0.00925	745.332 ± 0.26	–
[1], x2 = 0.01113	745.324 ± 0.26	–
[1], x2 = 0.01828	745.284 ± 0.26	–
[1], x2 = 0.02969	745.265 ± 0.26	–
[1], x2 = 0.0464	745.259 ± 0.26	–
[1], x2 = 0.0642	745.271 ± 0.26	–
[1], x2 = 0.08321	745.289 ± 0.26	–
[1], x2 = 0.09518	745.306 ± 0.26	–
[2], x2 = 0.000771	–	2.00822 ± 0.00035
[2], x2 = 0.001621	–	2.00927 ± 0.00035
[2], x2 = 0.00274	–	2.01066 ± 0.00035
[2], x2 = 0.003489	–	2.01159 ± 0.00035
[2], x2 = 0.004562	–	2.01293 ± 0.00034
[2], x2 = 0.005874	–	2.01448 ± 0.00032
[2], x2 = 0.008056	–	2.01694 ± 0.0003
[2], x2 = 0.01061	–	2.01951 ± 0.00027
[2], x2 = 0.0131	–	2.02187 ± 0.00026
[2], x2 = 0.01491	–	2.0235 ± 0.00024
[2], x2 = 0.01897	–	2.02697 ± 0.00023
[2], x2 = 0.02456	–	2.03155 ± 0.00023
[2], x2 = 0.03063	–	2.03644 ± 0.00023
[2], x2 = 0.03798	–	2.04263 ± 0.00024
[2], x2 = 0.04663	–	2.05023 ± 0.00026
[2], x2 = 0.05524	–	2.05834 ± 0.00028
[2], x2 = 0.06621	–	2.06954 ± 0.00031
[2], x2 = 0.08007	–	2.08561 ± 0.00032

CCO [ethanol]
Details	mass density [kg/m3]
[3]	785.055 ± 0.29

CCCCCCCO [heptan-1-ol]
Details	mass density [kg/m3]
[3]	818.746 ± 0.27

CCCCCCCO [heptan-1-ol] + CCCCCCCCCCCC
Details	mass density [kg/m3]	relative permittivity
[1], x1 = 0.00183	745.491 ± 0.26	–
[1], x1 = 0.00384	745.55 ± 0.26	–
[1], x1 = 0.00719	745.657 ± 0.26	–
[1], x1 = 0.01509	745.934 ± 0.26	–
[1], x1 = 0.02602	746.357 ± 0.26	–
[1], x1 = 0.03537	746.74 ± 0.26	–
[1], x1 = 0.04943	747.341 ± 0.26	–
[1], x1 = 0.06486	748.019 ± 0.26	–
[1], x1 = 0.08181	748.778 ± 0.26	–
[1], x1 = 0.1023	749.709 ± 0.26	–
[2], x1 = 0.000586	–	2.00786 ± 0.00036
[2], x1 = 0.001199	–	2.00865 ± 0.00036
[2], x1 = 0.001873	–	2.00953 ± 0.00036
[2], x1 = 0.002621	–	2.01049 ± 0.00036
[2], x1 = 0.003507	–	2.01164 ± 0.00036
[2], x1 = 0.004712	–	2.01319 ± 0.00036
[2], x1 = 0.006033	–	2.01489 ± 0.00035
[2], x1 = 0.007493	–	2.0167 ± 0.00034
[2], x1 = 0.009131	–	2.01867 ± 0.00033
[2], x1 = 0.01103	–	2.02082 ± 0.0003
[2], x1 = 0.01345	–	2.02338 ± 0.00028
[2], x1 = 0.01639	–	2.02628 ± 0.00026
[2], x1 = 0.02108	–	2.03055 ± 0.00025
[2], x1 = 0.02571	–	2.03449 ± 0.00023
[2], x1 = 0.03171	–	2.03943 ± 0.00023
[2], x1 = 0.0379	–	2.0444 ± 0.00022
[2], x1 = 0.04415	–	2.0494 ± 0.00022
[2], x1 = 0.0517	–	2.05543 ± 0.00023
[2], x1 = 0.06004	–	2.06219 ± 0.00023
[2], x1 = 0.07079	–	2.07111 ± 0.00024
[2], x1 = 0.08135	–	2.08016 ± 0.00024
[2], x1 = 0.09339	–	2.09089 ± 0.00026
[2], x1 = 0.1085	–	2.10505 ± 0.00026

CCCCCCO [hexan-1-ol]
Details	mass density [kg/m3]
[3]	815.275 ± 0.27

CCCCCCO [hexan-1-ol] + CCCCCCCCCCCC
Details	mass density [kg/m3]	relative permittivity
[1], x1 = 0.00175	745.477 ± 0.26	–
[1], x1 = 0.0046	745.539 ± 0.26	–
[1], x1 = 0.00826	745.625 ± 0.26	–
[1], x1 = 0.01788	745.888 ± 0.26	–
[1], x1 = 0.02646	746.157 ± 0.26	–
[1], x1 = 0.03537	746.455 ± 0.26	–
[1], x1 = 0.04959	746.947 ± 0.26	–
[1], x1 = 0.0656	747.525 ± 0.26	–
[1], x1 = 0.07934	748.03 ± 0.26	–
[1], x1 = 0.09708	748.704 ± 0.26	–
[2], x1 = 0.000504	–	2.00799 ± 0.00036
[2], x1 = 0.001087	–	2.00873 ± 0.00036
[2], x1 = 0.001795	–	2.00963 ± 0.00036
[2], x1 = 0.002783	–	2.01089 ± 0.00036
[2], x1 = 0.004043	–	2.0125 ± 0.00036
[2], x1 = 0.005459	–	2.0143 ± 0.00035
[2], x1 = 0.006744	–	2.0159 ± 0.00034
[2], x1 = 0.008507	–	2.01802 ± 0.00033
[2], x1 = 0.01046	–	2.02024 ± 0.00031
[2], x1 = 0.01278	–	2.02269 ± 0.00028
[2], x1 = 0.01656	–	2.02639 ± 0.00026
[2], x1 = 0.02	–	2.02952 ± 0.00025
[2], x1 = 0.02535	–	2.03412 ± 0.00023
[2], x1 = 0.03116	–	2.03887 ± 0.00023
[2], x1 = 0.03741	–	2.04388 ± 0.00022
[2], x1 = 0.04472	–	2.0497 ± 0.00022
[2], x1 = 0.05324	–	2.05652 ± 0.00023
[2], x1 = 0.06176	–	2.06346 ± 0.00023
[2], x1 = 0.07197	–	2.072 ± 0.00024
[2], x1 = 0.08324	–	2.08177 ± 0.00025
[2], x1 = 0.0941	–	2.09164 ± 0.00026
[2], x1 = 0.1052	–	2.10222 ± 0.00027

CO [methanol]
Details	mass density [kg/m3]
[3]	786.538 ± 0.3

CCCCCCCCCO [nonan-1-ol]
Details	mass density [kg/m3]
[3]	824.263 ± 0.27

CCCCCCCCCO [nonan-1-ol] + CCCCCCCCCCCC
[1]
Details	mass density [kg/m3]
x1 = 0.00099	745.467 ± 0.26
x1 = 0.0047	745.637 ± 0.26
x1 = 0.00777	745.786 ± 0.26
x1 = 0.01456	746.133 ± 0.26
x1 = 0.02651	746.79 ± 0.26
x1 = 0.03533	747.291 ± 0.26
x1 = 0.05117	748.212 ± 0.26
x1 = 0.06465	749.011 ± 0.26
x1 = 0.08043	749.97 ± 0.26
x1 = 0.09832	751.064 ± 0.26

CCCCCCCCO [octan-1-ol]
Details	mass density [kg/m3]
[3]	821.694 ± 0.42

CCCCCCCCO [octan-1-ol] + CCCCCCCCCCCC
Details	mass density [kg/m3]	relative permittivity
[1], x1 = 0.00204	745.513 ± 0.26	–
[1], x1 = 0.00419	745.594 ± 0.26	–
[1], x1 = 0.00734	745.718 ± 0.26	–
[1], x1 = 0.01454	746.026 ± 0.26	–
[1], x1 = 0.02591	746.56 ± 0.26	–
[1], x1 = 0.03144	746.83 ± 0.26	–
[1], x1 = 0.04912	747.72 ± 0.26	–
[1], x1 = 0.06408	748.489 ± 0.26	–
[1], x1 = 0.08146	749.394 ± 0.26	–
[1], x1 = 0.1014	750.468 ± 0.26	–
[2], x1 = 0.000468	–	2.00782 ± 0.00036
[2], x1 = 0.000994	–	2.0085 ± 0.00036
[2], x1 = 0.00174	–	2.00946 ± 0.00036
[2], x1 = 0.002707	–	2.0107 ± 0.00036
[2], x1 = 0.003781	–	2.01209 ± 0.00036
[2], x1 = 0.005049	–	2.01375 ± 0.00036
[2], x1 = 0.006519	–	2.01566 ± 0.00035
[2], x1 = 0.008207	–	2.01774 ± 0.00034
[2], x1 = 0.009844	–	2.01966 ± 0.00031
[2], x1 = 0.01266	–	2.02275 ± 0.00029
[2], x1 = 0.01671	–	2.02679 ± 0.00027
[2], x1 = 0.02183	–	2.03146 ± 0.00025
[2], x1 = 0.02777	–	2.03652 ± 0.00023
[2], x1 = 0.03323	–	2.04101 ± 0.00023
[2], x1 = 0.0398	–	2.04628 ± 0.00022
[2], x1 = 0.04865	–	2.05338 ± 0.00023
[2], x1 = 0.05937	–	2.06205 ± 0.00023
[2], x1 = 0.06843	–	2.06953 ± 0.00023
[2], x1 = 0.0778	–	2.07741 ± 0.00024
[2], x1 = 0.08823	–	2.08648 ± 0.00025
[2], x1 = 0.09795	–	2.0952 ± 0.00026
[2], x1 = 0.111	–	2.10743 ± 0.00026

CCCCCO [pentan-1-ol]
Details	mass density [kg/m3]
[3]	810.883 ± 0.27

CCCO [propan-1-ol]
Details	mass density [kg/m3]
[3]	799.564 ± 0.28

Reference: the NIST ThermoML archive (doi:10.1021/je050116g)
